Experimental data published in the NIST ThermoML archive (doi:10.1021/je900597n).
Several values for one entry are separate records, joined by “and”; a condition that tells them apart may be missing. Identical values can stand only once.

Experiments:
[1] = 101 kPa, Liquid; for speed of sound: Pulse-echo method
[2] = xn = mol fraction of the nth substance listed; conditions: 101 kPa, Liquid

COC(C)(C)C [2-methoxy-2-methylpropane]
[1]
Conditions | mass density [kg/m3] | speed of sound
288.15 K | 747.273 | 1086.6 m/s and 1086.9 m/s
293.15 K | 742.072 | 1063.4 m/s
298.15 K | 736.826 | 1040.3 m/s
303.15 K | 731.532 | 1017.4 m/s
308.15 K | 726.185 | 994.68 m/s

COC(C)(C)C [2-methoxy-2-methylpropane] + CCCN
[2], x1 = 1
Conditions | mass density [kg/m3] | speed of sound [m/s]
288.15 K | 747.273 | 1086.6
293.15 K | 742.072 | 1063.4
298.15 K | 736.826 | 1040.3
303.15 K | 731.532 | 1017.4
308.15 K | 726.185 | 994.68

COC(C)(C)C [2-methoxy-2-methylpropane] + CCCNCCC
[2], Pulse-echo method, x1 = 1
Conditions | speed of sound [m/s]
288.15 K | 1086.9
293.15 K | 1063.4
298.15 K | 1040.3
303.15 K | 1017.4
308.15 K | 994.68

[2], x1 = 1
Conditions | mass density [kg/m3]
288.15 K | 747.273
293.15 K | 742.072
298.15 K | 736.826
303.15 K | 731.532
308.15 K | 726.185

CCCNCCC [dipropylamine]
[1]
Conditions | mass density [kg/m3] | speed of sound [m/s]
288.15 K | 745.064 | 1235.1
293.15 K | 740.501 | 1213.4
298.15 K | 735.924 | 1191.9
303.15 K | 731.333 | 1170.4
308.15 K | 726.732 | 1149

CCCN [propan-1-amine]
[1]
Conditions | mass density [kg/m3] | speed of sound [m/s]
288.15 K | 725.08 | 1266.1
293.15 K | 719.859 | 1242
298.15 K | 714.586 | 1218
303.15 K | 709.269 | 1194
308.15 K | 703.911 | 1169.9

CCCN [propan-1-amine] + COC(C)(C)C
[2]
Conditions | mass density, 288.15 K [kg/m3] | mass density, 293.15 K [kg/m3] | mass density, 298.15 K [kg/m3] | mass density, 303.15 K [kg/m3] | mass density, 308.15 K [kg/m3] | speed of sound, 288.15 K [m/s] | speed of sound, 293.15 K [m/s] | speed of sound, 298.15 K [m/s] | speed of sound, 303.15 K [m/s] | speed of sound, 308.15 K [m/s]
x2 = 0 | 725.08 | 719.859 | 714.586 | 709.269 | 703.911 | 1266.1 | 1242 | 1218 | 1194 | 1169.9
x2 = 0.0709 | 727.856 | 722.621 | 717.583 | 712.014 | 706.643 | 1251.4 | 1227.2 | 1203.1 | 1179.1 | 1155.3
x2 = 0.0971 | 729.03 | 723.784 | 718.729 | 713.152 | 707.762 | 1244 | 1220 | 1196 | 1172.2 | 1148.2
x2 = 0.2112 | 733 | 727.745 | 722.617 | 717.065 | 711.678 | 1214.4 | 1190.5 | 1166.5 | 1142.9 | 1119.1
x2 = 0.2915 | 734.914 | 729.567 | 724.408 | 718.869 | 713.452 | 1204.2 | 1180.3 | 1156.2 | 1132.6 | 1109
x2 = 0.3956 | 737.188 | 731.938 | 726.763 | 721.277 | 715.895 | 1174.4 | 1150.7 | 1127 | 1103.4 | 1079.8
x2 = 0.5551 | 740.109 | 734.863 | 729.642 | 724.214 | 718.801 | 1146 | 1122.5 | 1098.9 | 1075.4 | 1052.2
x2 = 0.7171 | 742.564 | 737.327 | 732.071 | 726.691 | 721.338 | 1120.6 | 1097.1 | 1073.7 | 1050.5 | 1027.3
x2 = 0.7747 | 743.456 | 738.22 | 732.941 | 727.578 | 722.269 | 1111.6 | 1088 | 1064.5 | 1041 | 1017.8
x2 = 0.8604 | 744.503 | 739.27 | 733.994 | 728.673 | 723.302 | 1101.2 | 1077.8 | 1054.2 | 1030.9 | 1007.5
x2 = 0.9268 | 745.6 | 740.382 | 735.117 | 729.806 | 724.452 | 1094.2 | 1070.7 | 1047.5 | 1024.2 | 1001.1
